# In patent publication US9750449B2, “Method of assessing skin” (Johnson & Johnson Consumer Inc., priority 2003, dated 2017):
# What was measured:
# facial skin [1] = experiment: Visual observation of the appearance of wrinkles in treated areas; type: in vivo, human; conditions: cream with 0.15% retinol applied daily, vehicle cream alone had no effect
# facial skin [2] = experiment: In vivo facial skin fluorescence after daily topical retinol cream versus vehicle; parameters: species or system human; conditions: cheek
# Text: In vivo fluorescence spectroscopy can be performed for example using a fiber optic probe attached to a spectrofluorimeter (e.g. the model SkinSkan (J Y Horiba, Edison, N.J.)). The method requires: a) a UV radiation source (e.g., a Xenon arc lamp or a mercury lamp), b) a method of selecting the radiation wavelength (e.g. a monochromator, a prism, or a grating), c) a method of delivery of the radiation to the tissue (e.g. a fiber bundle), d) a method of collection of the emitted radiation from the tissue (e.g. a fiber bundle), e) a method of selecting the emitted radiation wavelength (e.g. a monochromator, a prism, or a grating), and f) a method of detecting the emitted radiation (e.g. a photomultiplier, a single photodiode, a photodiode array, or a CCD array). See, e.g., Stamatas G N, et al., J Invest Dermatol 118(2):295-302, 2002.
# Measurements were preformed by placing the fiber optic probe in contact with the skin site of interest. Before each set of measurements, the instrument was spectrally calibrated for excitation and emission in the region 250-650 nm. […]
# Acquisition of excitation spectra was the preferred method of measuring in vivo skin fluorescence. […]
# In order to account for variations in skin native pigmentation that attenuates the detected fluorescence signal, fluorescence intensity was normalized with the diffuse reflectance signal of the same skin site at the corresponding wavelength. […] The measured fluorescence in this wavelength region arises from the dermis (Gillies et al, 2000, Kollias et al, 1998), which means that excitation light has to travel through the whole epidermis where it is attenuated by epidermal melanin and proteins, both of which absorb strongly in the UV. […] Furthermore, the intensity of the light source is low below 300 nm and normalization of the fluorescence by the diffuse reflectance signal in this wavelength range amplified the noise. […] To overcome this problem, the tryptophan fluorescence signal may be normalized to another fluorescence band, rather than to the diffuse reflectance value at 295 nm. […]
smiles,measurement,setting,value
CC1=C(/C=C/C(C)=C/C=C/C(C)=C/CO)C(C)(C)CCC1 [retinol],appearance of wrinkles (visual observations),facial skin [1],reduction in the appearance of wrinkles
same,rate of decrease in the 295 nm band fluorescence,"facial skin [2]; cream with 0.15% retinol and SPF 15 sunscreen applied daily, measured at baseline, 3 and 6 months, placebo −0.04 units/month",−0.01 units/month
same,change of the 390 nm band fluorescence over the period of the study,"facial skin [2]; cream with 0.15% retinol applied daily, 6 months",did not significantly change
same,normalized tryptophan fluorescence values (I295nm/I390nm) over time,"facial skin [2]; cream with 0.15% retinol applied daily, 6 months, p<0.05 versus vehicle (−0.062±0.029 ratio units per month)",remained virtually constant
